3 compounds from ChEMBL document CHEMBL5465560, “Selectivity Literature for EUbOPEN Chemogenomic Library” (2024) can be followed below.

Experiment [1] deals with T1, Homeodomain-interacting protein kinase 4 (Homo sapiens) (UniProt Q8NE63).
T1 sequence (whole entry): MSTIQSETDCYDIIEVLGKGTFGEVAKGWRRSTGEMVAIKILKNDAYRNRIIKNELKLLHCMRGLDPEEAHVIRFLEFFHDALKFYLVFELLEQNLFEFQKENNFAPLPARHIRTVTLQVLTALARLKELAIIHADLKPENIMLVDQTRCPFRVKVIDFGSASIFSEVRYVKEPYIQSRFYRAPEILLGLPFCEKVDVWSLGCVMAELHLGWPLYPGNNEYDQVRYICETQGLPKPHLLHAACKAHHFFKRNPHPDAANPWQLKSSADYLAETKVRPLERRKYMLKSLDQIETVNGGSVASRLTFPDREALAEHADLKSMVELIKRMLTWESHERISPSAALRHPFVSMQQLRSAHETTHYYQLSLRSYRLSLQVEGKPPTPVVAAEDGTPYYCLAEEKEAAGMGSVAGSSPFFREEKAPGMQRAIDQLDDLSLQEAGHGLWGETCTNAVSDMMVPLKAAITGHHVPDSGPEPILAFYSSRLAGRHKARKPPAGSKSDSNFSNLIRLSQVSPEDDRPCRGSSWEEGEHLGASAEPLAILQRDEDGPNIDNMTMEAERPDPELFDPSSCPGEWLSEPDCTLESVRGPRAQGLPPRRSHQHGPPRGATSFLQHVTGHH
In words: Selectivity interaction (Kinase panel (Z-LYTE Assay)) EUB0001632a HIPK4. As to conditions: at 10 µM.

The target of experiment [2] is T2, MAP/microtubule affinity-regulating kinase 4 (Homo sapiens) (UniProt Q96L34).
T2 sequence (whole entry): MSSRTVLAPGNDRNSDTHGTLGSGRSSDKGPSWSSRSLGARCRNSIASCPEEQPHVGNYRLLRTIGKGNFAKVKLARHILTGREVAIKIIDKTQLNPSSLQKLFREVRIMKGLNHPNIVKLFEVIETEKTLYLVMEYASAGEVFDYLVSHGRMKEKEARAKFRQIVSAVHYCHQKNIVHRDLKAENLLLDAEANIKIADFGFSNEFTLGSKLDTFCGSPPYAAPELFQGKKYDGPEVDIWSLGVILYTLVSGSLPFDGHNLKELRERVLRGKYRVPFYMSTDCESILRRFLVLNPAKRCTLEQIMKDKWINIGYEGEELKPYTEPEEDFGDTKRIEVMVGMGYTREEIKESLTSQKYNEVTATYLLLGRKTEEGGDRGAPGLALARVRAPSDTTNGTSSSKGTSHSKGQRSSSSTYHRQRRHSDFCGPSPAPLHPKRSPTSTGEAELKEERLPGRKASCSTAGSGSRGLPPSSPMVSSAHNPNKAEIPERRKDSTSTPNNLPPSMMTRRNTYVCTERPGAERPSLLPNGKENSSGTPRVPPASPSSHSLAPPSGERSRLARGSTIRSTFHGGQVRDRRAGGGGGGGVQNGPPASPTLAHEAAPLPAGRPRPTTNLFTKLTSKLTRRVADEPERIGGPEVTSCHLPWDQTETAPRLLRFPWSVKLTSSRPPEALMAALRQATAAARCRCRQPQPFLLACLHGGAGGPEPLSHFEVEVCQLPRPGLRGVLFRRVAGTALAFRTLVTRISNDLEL
As to the kind of experiment: Selectivity interaction (Kinase panel (Z-LYTE Assay)) EUB0001632a MARK4. The following applies: at 10 µM.

For experiment [3], the target named is Mitogen-activated protein kinase kinase kinase 4 (Homo sapiens) (UniProt Q9Y6R4). As to the kind of experiment: Selectivity interaction (KinomeScan (DiscoverX)) EUB0000607a MAP3K4. As to conditions: at 10 µM.
The target in experiment [4] is T3, Serine/threonine-protein kinase LATS2 (Homo sapiens) (UniProt Q9NRM7).
T3 sequence (whole entry): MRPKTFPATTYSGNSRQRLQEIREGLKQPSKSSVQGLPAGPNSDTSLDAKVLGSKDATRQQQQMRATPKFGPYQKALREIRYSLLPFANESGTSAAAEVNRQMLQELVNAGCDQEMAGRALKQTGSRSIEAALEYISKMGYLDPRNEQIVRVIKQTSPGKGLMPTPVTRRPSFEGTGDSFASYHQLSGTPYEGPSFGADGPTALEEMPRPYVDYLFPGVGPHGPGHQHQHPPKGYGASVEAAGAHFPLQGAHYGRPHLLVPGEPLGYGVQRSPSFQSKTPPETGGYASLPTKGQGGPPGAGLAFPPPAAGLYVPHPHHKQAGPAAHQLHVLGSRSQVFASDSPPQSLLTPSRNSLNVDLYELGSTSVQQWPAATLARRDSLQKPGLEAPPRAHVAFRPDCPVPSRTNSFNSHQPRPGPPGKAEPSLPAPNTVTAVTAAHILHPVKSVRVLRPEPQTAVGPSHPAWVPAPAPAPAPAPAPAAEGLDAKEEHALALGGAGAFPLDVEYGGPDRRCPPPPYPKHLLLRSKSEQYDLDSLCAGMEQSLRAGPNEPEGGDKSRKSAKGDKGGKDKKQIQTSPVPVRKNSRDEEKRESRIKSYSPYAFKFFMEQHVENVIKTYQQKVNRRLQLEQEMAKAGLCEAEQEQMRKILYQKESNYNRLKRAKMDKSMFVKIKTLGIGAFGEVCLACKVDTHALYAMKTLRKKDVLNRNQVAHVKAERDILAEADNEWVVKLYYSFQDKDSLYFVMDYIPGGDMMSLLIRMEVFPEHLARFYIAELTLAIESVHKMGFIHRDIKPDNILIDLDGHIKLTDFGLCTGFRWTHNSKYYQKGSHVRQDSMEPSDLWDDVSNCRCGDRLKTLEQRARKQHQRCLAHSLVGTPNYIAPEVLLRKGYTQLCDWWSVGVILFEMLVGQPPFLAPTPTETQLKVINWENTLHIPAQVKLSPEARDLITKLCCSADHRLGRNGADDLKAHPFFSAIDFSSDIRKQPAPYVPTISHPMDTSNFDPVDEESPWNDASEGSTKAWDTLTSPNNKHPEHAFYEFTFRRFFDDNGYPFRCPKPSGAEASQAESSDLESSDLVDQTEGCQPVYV
As to the kind of experiment: Selectivity interaction (KinomeScan (DiscoverX)) EUB0000045b LATS2.

SMILES strings stand for the structures.

Sequence of Mitogen-activated protein kinase kinase kinase 4 (Homo sapiens) (Q9Y6R4 whole entry): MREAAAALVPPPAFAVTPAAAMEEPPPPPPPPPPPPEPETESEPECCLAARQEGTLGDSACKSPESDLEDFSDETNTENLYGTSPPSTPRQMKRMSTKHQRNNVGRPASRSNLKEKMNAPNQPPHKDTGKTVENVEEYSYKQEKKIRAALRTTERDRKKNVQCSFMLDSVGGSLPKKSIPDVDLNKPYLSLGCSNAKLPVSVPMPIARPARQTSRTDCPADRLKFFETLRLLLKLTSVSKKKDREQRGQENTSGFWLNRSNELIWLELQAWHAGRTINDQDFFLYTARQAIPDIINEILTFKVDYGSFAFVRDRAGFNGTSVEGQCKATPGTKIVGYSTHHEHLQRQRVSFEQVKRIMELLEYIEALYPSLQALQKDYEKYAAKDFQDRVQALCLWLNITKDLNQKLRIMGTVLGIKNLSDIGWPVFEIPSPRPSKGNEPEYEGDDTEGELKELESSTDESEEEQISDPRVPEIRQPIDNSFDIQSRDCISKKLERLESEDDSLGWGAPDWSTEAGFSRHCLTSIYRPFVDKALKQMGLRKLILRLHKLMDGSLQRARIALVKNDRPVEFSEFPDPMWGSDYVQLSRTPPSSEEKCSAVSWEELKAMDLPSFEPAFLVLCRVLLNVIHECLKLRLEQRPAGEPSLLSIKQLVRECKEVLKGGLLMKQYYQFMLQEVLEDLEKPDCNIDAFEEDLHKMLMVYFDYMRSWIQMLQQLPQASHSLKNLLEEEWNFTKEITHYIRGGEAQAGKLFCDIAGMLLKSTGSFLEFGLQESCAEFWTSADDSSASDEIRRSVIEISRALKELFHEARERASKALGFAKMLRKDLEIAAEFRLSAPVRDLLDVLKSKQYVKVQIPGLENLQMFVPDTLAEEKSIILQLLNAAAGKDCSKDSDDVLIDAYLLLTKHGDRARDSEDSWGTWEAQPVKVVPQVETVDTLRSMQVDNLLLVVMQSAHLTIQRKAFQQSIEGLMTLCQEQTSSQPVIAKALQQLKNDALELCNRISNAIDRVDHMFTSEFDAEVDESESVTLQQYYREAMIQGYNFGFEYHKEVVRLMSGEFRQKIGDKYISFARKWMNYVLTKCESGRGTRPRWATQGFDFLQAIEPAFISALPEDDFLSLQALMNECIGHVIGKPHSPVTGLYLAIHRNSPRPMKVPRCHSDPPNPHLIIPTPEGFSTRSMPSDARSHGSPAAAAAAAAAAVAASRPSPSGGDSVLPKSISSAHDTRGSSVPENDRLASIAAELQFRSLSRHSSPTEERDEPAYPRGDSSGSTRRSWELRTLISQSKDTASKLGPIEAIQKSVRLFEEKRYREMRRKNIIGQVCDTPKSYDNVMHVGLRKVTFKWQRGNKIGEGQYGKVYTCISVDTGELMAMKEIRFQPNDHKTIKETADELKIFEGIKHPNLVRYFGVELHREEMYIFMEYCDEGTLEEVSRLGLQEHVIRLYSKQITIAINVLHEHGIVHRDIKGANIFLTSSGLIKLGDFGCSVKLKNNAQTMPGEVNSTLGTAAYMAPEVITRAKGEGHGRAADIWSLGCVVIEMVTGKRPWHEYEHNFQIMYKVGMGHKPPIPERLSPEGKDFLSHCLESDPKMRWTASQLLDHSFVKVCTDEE

In the case of `Cn1cc(-n2cnc3c(NCc4nc5cc(Cl)c(Cl)cc5[nH]4)nc(N4CCOCC4)nc32)cn1`, the % of control in experiment [1] stood at 6.45%; in experiment [2] it was 18.7%. As to `CNC(=O)Nc1ccc(-c2nc(N3CC4CCC(C3)O4)c3cnn(C4CCC5(CC4)OCCO5)c3n2)cc1`, the % of control in experiment [3] was 86%.

As to `C=CC(=O)Nc1cc(-n2c(=O)ccc3cnc4ccc(-c5ccc(NS(C)(=O)=O)cc5)cc4c32)ccc1C`, the % of control is 100% in experiment [4] (at 1 µM) and 81% in experiment [4] (at 10 µM).
